Laboratory results from US20230295199A1, “PHOSPHOLIPID” (NIPPON FINE CHEMICAL CO., LTD., priority 2021, published 2023).

How the values were obtained:
[1] = Particle size and polydispersity index of lipid particles (Zetasizer Nano ZS); type: physicochemical; conditions: siRNA lipid particles, lipid 1:DPPC:Chol 45:10:45, named phospholipid as lipid 1; diluted 50-fold with RNase-free water
Experimental: (§1) siRNA was added to 1 mM citrate buffer (pH 4.0), thereby preparing an acidic aqueous solution of siRNA (25° C., siRNA concentration: 71.4 nM). Separately, lipids (lipid 1: DOP-DEDA, DOP-PPZ, or DOR-MPPZ; lipid 2: dipalmitoyl phosphatidylcholine (DPPC); and lipid 3: cholesterol (Chol)) at a molar ratio of 45:10:45 (lipid 1:lipid 2:lipid 3) were added to ethanol, thereby preparing a phospholipid alcohol solution (25° C., lipid concentration: 2.5 mM). A 5-fold volume of the acidic aqueous solution of siRNA was added to the phospholipid alcohol solution (siRNA/lipid molar ratio=1/7000), and a microchannel (KeyChem-Basic, YMC Co., Ltd.) was used to obtain lipid particles. Finally, ethanol was removed by dialysis.
The lipid particles were diluted 50-fold with RNase-free water, and then the particle size and polydispersity index (PDI) were measured with a Zetasizer Nano ZS (Malvern). The lipid. particles were also diluted 50-fold with a buffer (pH=4.0, 5.0, 6.0, or 7.0), and the ζ-potential was then measured.

[2] = siRNA encapsulation efficiency of lipid particles (RiboGreen reagent); type: physicochemical; conditions: lipid 1:DPPC:Chol 45:10:45, siRNA/lipid molar ratio 1/7000, named phospholipid as lipid 1
Experimental: as §1
Further, the encapsulation efficiency of RNA was measured in the following manner. The measurement was performed using an RNA assay reagent (RiboGreen reagent, Thermo Fisher Scientific), specifically as described below. […] The plate was shaken for 5 minutes, and the fluorescence intensity in each well was measured. The encapsulation efficiency of siRNA in the lipid particles was calculated using the following equation: the encapsulation efficiency (%)=(the fluorescence intensity of total siRNA−the fluorescence intensity of free siRNA)/(the fluorescence intensity of total siRNA), with the measured fluorescence intensity.

Row | Particle size (nm) [1] | Pdl [1] | siRNA encapsulation efficiency (%)* [2] | Compound
1 | 100 ± 3 nm | 0.11 ± 0.06 | 98 ± 7% | Dioleoylphosphate-Diethylenediamine Conjugate [DOP-DEDA, reference compound]
2 | 79 ± 3 nm | 0.35 ± 0.01 | 94 ± 4% | CCCCCCCC/C=C\CCCCCCCC(=O)OC[C@H](COP(=O)(O)OCCN1CCNCC1)OC(=O)CCCCCCC/C=C\CCCCCCCC [DOP-PPZ, 1,2-di-(9Z-octadecenoyl)-sn-glycero-3-phosphoethylpiperazine]
